Data published in the NIST ThermoML archive (doi:10.1021/je700260f).
± gives the expanded uncertainty stated by the source.

Details: Liquid, Vibrating tube method

FC(C(F)(F)F)C(F)(F)F [1,1,1,2,3,3,3-heptafluoropropane]
Details	mass density [kg/m3]
333.14 K, 28231 kPa	1431.3 ± 1.6
333.14 K, 28261 kPa	1431.4 ± 1.6
333.14 K, 28291 kPa	1431.5 ± 1.6
333.14 K, 28321 kPa	1431.5 ± 1.6
333.14 K, 28346 kPa	1431.8 ± 1.6
333.14 K, 28383 kPa	1431.9 ± 1.6
333.14 K, 28426 kPa	1432.1 ± 1.6
333.14 K, 28453 kPa	1432.3 ± 1.6
333.14 K, 29468 kPa	1436.5 ± 1.7
333.14 K, 29504 kPa	1436.7 ± 1.7
333.14 K, 29539 kPa	1436.8 ± 1.7
333.14 K, 29570 kPa	1437.1 ± 1.7
333.14 K, 29596 kPa	1437.2 ± 1.7
333.14 K, 29621 kPa	1437.1 ± 1.7
333.14 K, 29660 kPa	1437.3 ± 1.7
333.14 K, 29724 kPa	1437.5 ± 1.7
333.14 K, 29789 kPa	1437.8 ± 1.7
333.14 K, 29825 kPa	1437.9 ± 1.7
333.14 K, 29848 kPa	1438.1 ± 1.7
333.14 K, 29883 kPa	1438.3 ± 1.7
333.14 K, 29910 kPa	1438.4 ± 1.7
333.14 K, 29946 kPa	1438.5 ± 1.7
333.14 K, 29982 kPa	1438.6 ± 1.7
333.14 K, 30013 kPa	1438.8 ± 1.7
333.14 K, 30054 kPa	1439.1 ± 1.7
333.14 K, 30122 kPa	1439.3 ± 1.7
333.14 K, 30215 kPa	1439.6 ± 1.7
333.14 K, 30241 kPa	1439.8 ± 1.7
333.14 K, 30272 kPa	1440 ± 1.7
333.14 K, 30958 kPa	1442.6 ± 1.7
333.14 K, 31004 kPa	1442.8 ± 1.7
333.14 K, 31030 kPa	1443 ± 1.7
333.14 K, 31064 kPa	1443.2 ± 1.7
333.14 K, 31094 kPa	1443.2 ± 1.7
333.14 K, 31125 kPa	1443.4 ± 1.7
333.14 K, 31155 kPa	1443.4 ± 1.7
333.14 K, 31190 kPa	1443.7 ± 1.7
333.14 K, 31220 kPa	1443.6 ± 1.7
333.14 K, 31247 kPa	1443.9 ± 1.7
333.14 K, 31285 kPa	1444 ± 1.7
333.14 K, 31317 kPa	1444 ± 1.7
333.14 K, 31349 kPa	1444.1 ± 1.7
333.14 K, 31380 kPa	1444.4 ± 1.7
333.14 K, 31423 kPa	1444.5 ± 1.7
333.14 K, 31458 kPa	1444.7 ± 1.7
333.14 K, 31490 kPa	1444.8 ± 1.7
333.14 K, 31523 kPa	1445 ± 1.7
333.14 K, 31566 kPa	1445.1 ± 1.7
333.14 K, 31598 kPa	1445.3 ± 1.7
333.14 K, 31630 kPa	1445.3 ± 1.7
333.14 K, 31662 kPa	1445.5 ± 1.7
333.14 K, 31694 kPa	1445.6 ± 1.7
333.14 K, 31730 kPa	1445.8 ± 1.7
333.14 K, 31758 kPa	1445.8 ± 1.7
333.14 K, 31790 kPa	1446 ± 1.7
333.14 K, 31827 kPa	1446.1 ± 1.7
333.14 K, 31857 kPa	1446.3 ± 1.7
333.14 K, 31894 kPa	1446.5 ± 1.7
333.14 K, 31930 kPa	1446.5 ± 1.7
333.14 K, 31957 kPa	1446.6 ± 1.7
333.14 K, 32003 kPa	1446.7 ± 1.7
333.14 K, 32036 kPa	1446.9 ± 1.7
333.14 K, 32069 kPa	1447 ± 1.7
333.14 K, 32103 kPa	1447.2 ± 1.7
333.14 K, 32135 kPa	1447.4 ± 1.7
333.14 K, 32168 kPa	1447.4 ± 1.7
333.14 K, 32197 kPa	1447.6 ± 1.7
333.14 K, 32240 kPa	1447.7 ± 1.7
333.14 K, 32275 kPa	1447.7 ± 1.7
333.14 K, 32318 kPa	1448 ± 1.7
333.14 K, 32349 kPa	1448.2 ± 1.7
333.14 K, 32394 kPa	1448.3 ± 1.7
333.14 K, 32422 kPa	1448.5 ± 1.7
333.14 K, 32458 kPa	1448.6 ± 1.7
333.14 K, 32486 kPa	1448.7 ± 1.7
333.14 K, 32524 kPa	1448.8 ± 1.7
333.14 K, 32553 kPa	1448.9 ± 1.7
333.14 K, 32585 kPa	1449.1 ± 1.7
333.14 K, 32614 kPa	1449.2 ± 1.7
333.14 K, 32648 kPa	1449.3 ± 1.7
333.14 K, 32678 kPa	1449.5 ± 1.7
333.14 K, 32707 kPa	1449.5 ± 1.7
333.14 K, 32736 kPa	1449.7 ± 1.7
333.14 K, 32768 kPa	1449.9 ± 1.7
333.14 K, 32811 kPa	1449.9 ± 1.7
333.14 K, 32840 kPa	1450.1 ± 1.7
333.14 K, 32883 kPa	1450.3 ± 1.7
333.14 K, 33794 kPa	1453.9 ± 1.7
333.14 K, 33829 kPa	1453.8 ± 1.7
333.14 K, 33872 kPa	1453.9 ± 1.7
333.14 K, 33907 kPa	1454.1 ± 1.7
333.14 K, 34179 kPa	1455.3 ± 1.7
333.14 K, 34220 kPa	1455.1 ± 1.7
333.14 K, 34250 kPa	1455.4 ± 1.7
333.14 K, 34294 kPa	1455.5 ± 1.7
333.14 K, 34336 kPa	1455.9 ± 1.7
333.14 K, 34376 kPa	1455.8 ± 1.7
333.14 K, 34409 kPa	1456 ± 1.7
333.15 K, 6283 kPa	1289.9 ± 1.5
333.15 K, 6309 kPa	1290.2 ± 1.5
333.15 K, 6346 kPa	1290.5 ± 1.5
333.15 K, 6386 kPa	1291 ± 1.5
